IC50 data for 16 molecules are collected here from patent US20090270350A1, “Pyridinone Pyrazole Urea and Pyrimidinone Pyrazole Urea Derivatives” (PFIZER INC., priority 2006, published 2009).

Molecules are shown by their SMILES. pIC50: −log10 of the molar value.

For the first test, the target named is p38α (Homo sapiens, UniProt Q16539). Briefly: p38α/MK2 cascade assay. The class given is biochemical. The note with it: Table 1; inhibitors preincubated with p38α for 40 minutes; phosphorylation of Hsp27 peptide by MK-2, Caliper LabChip 3000; read-out: p38a/MK2 Cascade 40 min Pre-Incuabtion (% Inhibition): IC50. The gist of the method: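 In a cascade format, p38α was preincubated 40 min with inhibitor (1000–0.05 nM) before adding 1 nM nonactive MK2 (54-400), 5 μM MgATP and 0.5 μM FITC-Hsp27 peptide. Reaction ran 60 min in HEPES pH 7.5 with MgCl2, DTT, 2% DMSO, then EDTA-quenched. Peptide phosphorylation was measured by Caliper mobility shift to give IC50.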
p38α, sequence (Q16539 whole entry): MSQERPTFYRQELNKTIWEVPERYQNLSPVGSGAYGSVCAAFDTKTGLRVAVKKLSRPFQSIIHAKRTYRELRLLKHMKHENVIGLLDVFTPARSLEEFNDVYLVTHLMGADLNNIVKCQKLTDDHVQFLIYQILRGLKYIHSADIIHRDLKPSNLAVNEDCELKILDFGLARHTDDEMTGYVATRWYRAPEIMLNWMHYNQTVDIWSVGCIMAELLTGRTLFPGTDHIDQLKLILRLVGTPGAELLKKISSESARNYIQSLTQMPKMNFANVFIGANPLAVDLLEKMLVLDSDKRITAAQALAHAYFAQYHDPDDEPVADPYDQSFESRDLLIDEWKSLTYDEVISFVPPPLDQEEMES
Consider `CCc1c(OCc2ccccc2CNC(=O)Nc2cc(C(C)(C)C)nn2-c2cccc(OC)c2)ncn(Cc2ccc(OC)cc2)c1=O` [Example 115, 1-[3-tert-butyl-1-(3-methoxyphenyl)-1H-pyrazol-5-yl]-3-[2-({[5-ethyl-1-(4-methoxybenzyl)-6-oxo-1,6-dihydropyrimidin-4-yl]oxy}methyl)benzyl]urea], for which the pIC50 was 7.59.

Consider `COc1cccc(Cn2c(C)cc(OCc3ccc(F)cc3CNC(=O)Nc3cc(C(C)(C)C)nn3-c3ccc(Cl)c(O[Si](C)(C)C(C)(C)C)c3)c(Cl)c2=O)c1` [Example 43, 1-[3-tert-butyl-1-(3-{[tert-butyl(dimethyl)silyl]oxy}-4-chlorophenyl)-1H-pyrazol-5-yl]-3-[2-({[3-chloro-1-(3-methoxybenzyl)-6-methyl-2-oxo-1,2-dihydropyridin-4-yl]oxy}methyl)-5-fluorobenzyl]urea], for which the pIC50 was 7.37.

Take `Cc1ccc(-n2nc(C(C)(C)C)cc2NC(=O)NCc2cc(F)ccc2COc2cc(C)n(-c3cc(C(=O)NCCO)ccc3C)c(=O)c2Cl)cc1` [Example 190, 3-{4-[(2-{[({[3-tert-butyl-1-(4-methylphenyl)-1H-pyrazol-5-yl]amino}carbonyl)amino]methyl}-4-fluorobenzyl)oxy]-3-chloro-6-methyl-2-oxopyridin-1(2H)-yl}-N-(2-hydroxyethyl)-4-methylbenzamide]: the pIC50 was 8.63.

In the case of `Cc1ccc(-n2nc(C(C)(C)C)cc2NC(=O)NCc2cc(F)ccc2COc2cc(C)n(-c3cc(C(=O)O)ccc3C)c(=O)c2Cl)cc1` [Example 186, 3-{4-[(2-{[({[3-tert-butyl-1-(4-methylphenyl)-1H-pyrazol-5-yl]amino}carbonyl)amino]methyl}-4-fluorobenzyl)oxy]-3-chloro-6-methyl-2-oxopyridin-1(2H)-yl}-4-methylbenzoic acid], the pIC50 was 8.34.

On to `Cc1ccc(-n2nc(C(C)(C)C)cc2NC(=O)NCc2ccccc2COc2cc(C)n(Cc3ccccc3)c(=O)c2Br)cc1` [Example 106, 1-(2-{[(1-benzyl-3-bromo-6-methyl-2-oxo-1,2-dihydropyridin-4-yl)oxy]methyl}benzyl)-3-[3-tert-butyl-1-(4-methylphenyl)-1H-pyrazol-5-yl]urea], for which the pIC50 was 8.34.

In the case of `Cc1cc(OCc2ccccc2CNC(=O)Nc2cc(C(C)(C)C)nn2-c2ccccc2)c(Br)c(=O)n1Cc1ccccc1` [Example 104, 1-(2-{[(1-benzyl-3-bromo-6-methyl-2-oxo-1,2-dihydropyridin-4-yl)oxy]methyl}benzyl)-3-(3-tert-butyl-1-phenyl-1H-pyrazol-5-yl)urea], the pIC50 is 8.34.

As to `COc1ccc(Cn2c(C)cc(OCc3ccccc3CNC(=O)Nc3cc(C(C)(C)C)nn3-c3ccc(O)cc3)c(Cl)c2=O)cc1Cl` [Example 64, 1-[3-tert-butyl-1-(4-hydroxyphenyl)-1H-pyrazol-5-yl]-3-[2-({[3-chloro-1-(3-chloro-4-methoxybenzyl)-6-methyl-2-oxo-1,2-dihydropyridin-4-yl]oxy}methyl)benzyl]urea], the pIC50 was 8.12.

The test is the same for the next values; noted with them: Table 2; same p38α/MK2 cascade assay; 40 minutes preincubation; read-out: p38a/MK2 Cascade 40 min Pre-Incuabtion (% Inhibition): IC50.
In the case of `COc1ccc(Cn2c(C)cc(OCc3ccccc3CNC(=O)Nc3cc(C(C)(C)C)nn3-c3ccc(O)c(Cl)c3)c(C)c2=O)cc1Cl` [Example 266, 1-[3-tert-butyl-1-(3-chloro-4-hydroxyphenyl)-1H-pyrazol-5-yl]-3-[2-({[1-(3-chloro-4-methoxybenzyl)-3,6-dimethyl-2-oxo-1,2-dihydropyridin-4-yl]oxy}methyl)benzyl]urea], the pIC50 was 7.72.

Consider `Cc1ccc(C(=O)NCC(O)CO)cc1-n1c(C)cc(OCc2ccccc2CNC(=O)Nc2cc(C(C)(C)C)nn2-c2cccc(OCCO)c2)c(Cl)c1=O` (stereo not shown) [Example 212, 3-[4-{[2-({[({3-tert-butyl-1-[3-(2-hydroxyethoxy)phenyl]-1H-pyrazol-5-yl}amino)carbonyl]amino}methyl)benzyl]oxy}-3-chloro-6-methyl-2-oxopyridin-1(2H)-yl]-N-(2,3-dihydroxypropyl)-4-methylbenzamide], for which the pIC50 was 8.74.

Regarding `CSc1ccccc1Cn1c(C)cc(OCc2ccccc2CNC(=O)Nc2cc(C(C)(C)C)nn2-c2ccc(O)cc2)c(C)c1=O` [Example 241, 1-[3-tert-butyl-1-(4-hydroxyphenyl)-1H-pyrazol-5-yl]-3-{2-[({3,6-dimethyl-1-[2-(methylthio)benzyl]-2-oxo-1,2-dihydro-pyridin-4-yl}oxy)methyl]benzyl}urea], the pIC50 is 7.87.

For the molecule `Cc1ccc(C(=O)NCCO)cc1-n1c(C)cc(OCc2ccccc2CNC(=O)Nc2cc(C(C)(C)C)nn2-c2ccc(O)c(Cl)c2)c(Cl)c1=O` [Example 224, 3-{4-[(2-{[({[3-tert-butyl-1-(3-chloro-4-hydroxyphenyl)-1H-pyrazol-5-yl]amino}carbonyl)amino]methyl}benzyl)oxy]-3-chloro-6-methyl-2-oxopyridin-1(2H)-yl}-N-(2-hydroxyethyl)-4-methylbenzamide], the pIC50 was 8.49.

On to `COc1ccc(Cn2c(C)cc(OCc3ccccc3CNC(=O)Nc3cc(C(C)(C)C)nn3-c3ccc(F)cc3F)c(C)c2=O)c(OC)c1` [Example 244, 1-[3-tert-butyl-1-(2,4-difluorophenyl)-1H-pyrazol-5-yl]-3-[2-({[1-(2,4-dimethoxybenzyl)-3,6-dimethyl-2-oxo-1,2-dihydropyridin-4-yl]oxy}methyl)benzyl]urea], for which the pIC50 is 7.86.

With `COC(=O)c1ccc(C)c(-n2c(C)cc(OCc3ccc(F)cc3CNC(=O)Nc3cc(C(C)(C)C)nn3-c3cccc(O)c3)c(Cl)c2=O)c1` [Example 203, methyl 3-{4-[(2-{[({[3-tert-butyl-1-(3-hydroxy-phenyl)-1H-pyrazol-5-yl]amino}-carbonyl)amino]-methyl}-4-fluorobenzyl)oxy]-3-chloro-6-methyl-2-oxopyridin-1(2H)-yl}-4-methylbenzoate], the pIC50 is 8.55.

In the case of `Cc1ccc(C(=O)NCC(O)CO)cc1-n1c(C)cc(OCc2ccccc2CNC(=O)Nc2cc(C(C)(C)C)nn2-c2ccc(Cl)c(O)c2)c(Cl)c1=O` (stereo not shown) [Example 234, 3-{4-[(2-{[({[3-tert-butyl-1-(4-chloro-3-hydroxyphenyl)-1H-pyrazol-5-yl]amino}carbonyl)amino]methyl}benzyl)oxy]-3-chloro-6-methyl-2-oxopyridin-1(2H)-yl}-N-(2,3-dihydroxy-propyl)-4-methylbenzamide], the pIC50 is 8.89.

With `COc1cccc(Cn2c(C)cc(OCc3ccc(F)cc3CNC(=O)Nc3cc(C(C)(C)C)nn3-c3cccc(OC)c3)c(Cl)c2=O)c1` [Example 201, 1-[3-tert-butyl-1-(3-methoxyphenyl)-1H-pyrazol-5-yl]-3-[2-({[3-chloro-1-(3-methoxybenzyl)-6-methyl-2-oxo-1,2-dihydropyridin-4-yl]oxy}methyl)-5-fluoro-benzyl]urea], the pIC50 is 8.35.

For the molecule `COc1ccc(Cn2c(C)cc(OCc3ccccc3CNC(=O)Nc3cc(C(C)(C)C)nn3-c3ccc(Cl)c(O)c3)c(C)c2=O)cc1C#N` [Example 251, 1-[3-tert-butyl-1-(4-chloro-3-hydroxyphenyl)-1H-pyrazol-5-yl]-3-[2-({[1-(3-cyano-4-methoxybenzyl)-3,6-dimethyl-2-oxo-1,2-dihydropyridin-4-yl]oxy}methyl)benzyl]urea], the pIC50 was 8.08.
